According to ChEMBL document CHEMBL1201862, “PubChem BioAssay data set” (2004):
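Exposure lasted 48 hours, with cells grown in 96-well plates and compounds tested at five concentrations. GI50: concentration for 50% inhibition of growth.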 Active and inactive are the calls of the source. Cut-off read from the data, not from the text of the source: active = GI50 up to about 1.1 µM and inactive = higher.

Key:
Experiment in all cases: NCI anticancer screen, dose series, 48 h
[1] = test system: LXFL 529
[2] = test system: DMS-273
[3] = test system: KM-20L2
[4] = test system: M19-MEL
[5] = test system: SNB-78
[6] = test system: DMS-114
[7] = test system: DLD-1
[8] = test system: XF498
[9] = test system: RXF 631

Structure (SMILES) | GI50 [1] | GI50 [2] | GI50 [3] | GI50 [4] | GI50 [5] | GI50 [6] | GI50 [7] | GI50 [8] | GI50 [9]
CCCCCCCCCOC(=S)NCCCCC | 33.3 µM (inactive) | 25.5 µM (inactive) | 23.8 µM (inactive) | 39.3 µM (inactive) | 40.6 µM (inactive) | 21.7 µM (inactive) | 35.6 µM (inactive) |  | 
CCOc1c(Cc2ccccc2)c(=O)n2c3ccccc3n3c(=O)n(C)c(=O)c1c23 | > 100 µM (inactive) | > 100 µM (inactive) |  | > 100 µM (inactive) | > 100 µM (inactive) | > 100 µM (inactive) | > 100 µM (inactive) | > 100 µM (inactive) | > 100 µM (inactive)
CC1C(=O)N(C)C2(CO)C(=O)O[C@H](C)C12O (some centres undefined) |  |  |  | > 100 µM (inactive) | > 100 µM (inactive) | > 100 µM (inactive) | > 100 µM (inactive) |  | 
Cc1[nH]c2ccccc2c1CC/C(=N\Nc1ccccc1)c1ccccc1 |  | > 100 µM (inactive) | > 100 µM (inactive) |  | > 100 µM (inactive) |  | > 100 µM (inactive) | 78.2 µM (inactive) | > 100 µM (inactive)
OC[C@@H]1CC#C/C=C\C#CC[C@@H]1CO |  |  |  | > 100 µM (inactive) | > 100 µM (inactive) | > 100 µM (inactive) | > 100 µM (inactive) | 0.471 µM (active) | 
CCOC(=O)/C(=C/c1ccc(OC)c(OC)c1)C(=O)c1ccccc1 | 12.2 µM (inactive) |  | 18.4 µM (inactive) | 19 µM (inactive) | 17.1 µM (inactive) | 15.2 µM (inactive) | 15.4 µM (inactive) | 14.9 µM (inactive) | 
COc1ccc(/C=C2\CCC(CCN3CCOCC3)C2=O)cc1 (centres undefined) | > 100 µM (inactive) | > 100 µM (inactive) | > 100 µM (inactive) | > 100 µM (inactive) | > 100 µM (inactive) | > 100 µM (inactive) | > 100 µM (inactive) | > 100 µM (inactive) | 
O=c1oc2c3ccc4ccccc4c3n(CCN3CCCCC3)c2c2ccccc12 | 43.9 µM (inactive) | 38.3 µM (inactive) | > 61 µM (inactive) | 25.6 µM (inactive) | 20.9 µM (inactive) | > 76 µM (inactive) | 30.2 µM (inactive) | 21.4 µM (inactive) | 24.6 µM (inactive)
CCCCCCCC/C=C1\CCC(CN2CCOCC2)C1=O (centres undefined) | 4.54 µM (inactive) |  | 16.3 µM (inactive) | 8.65 µM (inactive) | 10.5 µM (inactive) | 6.41 µM (inactive) | 2.8 µM (inactive) | 14.2 µM (inactive) | 8.95 µM (inactive)
C=CCNC(=S)N1c2ccccc2NC(=O)CC1C (centres undefined) | > 100 µM (inactive) | > 100 µM (inactive) | > 100 µM (inactive) | > 100 µM (inactive) | > 100 µM (inactive) | > 100 µM (inactive) |  | > 100 µM (inactive) | 
C/N=C(\SC)N(C)c1nc(=[N+](C)C)ss1.[O-][Cl+3]([O-])([O-])[O-] | 58.6 µM (inactive) | > 100 µM (inactive) |  |  | > 100 µM (inactive) |  |  | 32.6 µM (inactive) | 2.28 µM (inactive)
N#CC(C(=O)C(=O)Nc1ccc(Cl)c(Cl)c1)c1ccc(Cl)cc1 (centres undefined) | 77.1 µM (inactive) | > 100 µM (inactive) | > 100 µM (inactive) |  | > 100 µM (inactive) | 22.9 µM (inactive) | 44.1 µM (inactive) | 61 µM (inactive) | 
CN(C)CC1CCCC/C1=N/OC(=O)c1ccc(Cl)cc1 (centres undefined) | > 100 µM (inactive) | > 100 µM (inactive) | > 100 µM (inactive) | > 100 µM (inactive) | > 100 µM (inactive) |  | > 100 µM (inactive) | > 100 µM (inactive) | 
Cn1c(=O)c2nc(-c3ccc(Cl)cc3)oc2n(C)c1=O | > 100 µM (inactive) | > 100 µM (inactive) | > 100 µM (inactive) | > 100 µM (inactive) | > 100 µM (inactive) | > 100 µM (inactive) | > 100 µM (inactive) | > 100 µM (inactive) | 
N=C(N)N/N=C(/CCN1CCCC1)CC(c1ccccc1)c1c(O)c2ccccc2oc1=O (centres undefined) | > 100 µM (inactive) |  | > 100 µM (inactive) | > 100 µM (inactive) |  | > 100 µM (inactive) | > 100 µM (inactive) | > 100 µM (inactive) | > 100 µM (inactive)
Cc1ccc(NC(=O)SCCC(=O)O)cc1NC(=O)SCCC(=O)O | > 100 µM (inactive) | > 10 µM (inactive) | > 100 µM (inactive) |  | > 100 µM (inactive) | > 100 µM (inactive) | > 10 µM (inactive) |  | 
CC(C)c1cccc(C(C)C)c1NC(=O)C(=O)C1SC(=S)NC1=O (centres undefined) | > 100 µM (inactive) | > 100 µM (inactive) | > 100 µM (inactive) | > 100 µM (inactive) | > 100 µM (inactive) |  | > 100 µM (inactive) | > 100 µM (inactive) | > 100 µM (inactive)
Oc1cc(-c2cccc(Br)c2)nc2cc3c(cc12)OCO3 | 2.26 µM (inactive) | 4.37 µM (inactive) |  | 4.37 µM (inactive) | 3.37 µM (inactive) | 2.85 µM (inactive) | 3.16 µM (inactive) | 4.16 µM (inactive) | 
COC(=O)NN1C(C)=C(C(=O)OC)C2(C#N)C(C(=O)OC)=C(C)N(NC(=O)OC)C12N (centres undefined) | > 100 µM (inactive) | > 100 µM (inactive) | > 100 µM (inactive) | > 100 µM (inactive) | > 100 µM (inactive) | > 100 µM (inactive) | > 100 µM (inactive) | > 100 µM (inactive) | > 100 µM (inactive)
Cc1ccc(S(=O)OC2c3ccccc3Cc3ccccc32)cc1 (centres undefined) | 16.4 µM (inactive) | 17.5 µM (inactive) | 19.9 µM (inactive) | 21.1 µM (inactive) | 19.9 µM (inactive) | 20.2 µM (inactive) | 22.9 µM (inactive) | 15.2 µM (inactive) | 17.2 µM (inactive)
CC[C@](C)(O)C(=O)O[C@H]1C(=O)O[C@@H]2C[C@H]3C(C)=CC(=O)[C@@H](O)[C@]3(C)[C@H]3[C@@]4(O)OC[C@]32[C@@H]1[C@@H](C)[C@H]4O [GLAUCARUBINONE] | < 0.0111 µM (active) | 0.05 µM (active) |  | 0.05 µM (active) | 0.0668 µM (active) |  |  |  | 0.543 µM (active)
CCNC(=O)O/N=C1/C=C2CC[C@@H]3C(CC[C@@]4(C)C3CC[C@@H]4OC(=O)NCC)[C@@]2(C)CC1 (some centres undefined) | 1.79 µM (inactive) | 1.99 µM (inactive) | 2.28 µM (inactive) | 3.13 µM (inactive) | 2.67 µM (inactive) | 1.66 µM (inactive) | 5.9 µM (inactive) |  | 
